Data reported in US10718772B2, “Method of detection of analyte active forms and determination of the ability of substances to bind into analyte active sites” (USTAV ORGANICKE CHEMIE A BIOCHEMIE AKADEMIE VED CR, V.V.I., priority 2014, dated 2020).
{C7NH2-Cpd13} = 6-amino-2-(hydroxymethyl)hexyl phosphate carrying Compound 13; {C6NH2-Cpd13} = 6-aminohexyl phosphate carrying Compound 13; {AmHex} = 6-amino-2-(hydroxymethyl)hexyl phosphate

Key:
Avi-PSMA [1] = molecular target: T1, Avi-PSMA (Homo sapiens, UniProt Q04609); assay: Enzyme kinetics of Avi-PSMA (HPLC, cleavage of pteroyl-bis-L-glutamate); format: biochemical
T1 construct: Biotinylated extracellular portion of PSMA (hereinafter called Avi-PSMA) used in the enzyme assay; made in house
T1 sequence (Q04609 44-750 limits assumed): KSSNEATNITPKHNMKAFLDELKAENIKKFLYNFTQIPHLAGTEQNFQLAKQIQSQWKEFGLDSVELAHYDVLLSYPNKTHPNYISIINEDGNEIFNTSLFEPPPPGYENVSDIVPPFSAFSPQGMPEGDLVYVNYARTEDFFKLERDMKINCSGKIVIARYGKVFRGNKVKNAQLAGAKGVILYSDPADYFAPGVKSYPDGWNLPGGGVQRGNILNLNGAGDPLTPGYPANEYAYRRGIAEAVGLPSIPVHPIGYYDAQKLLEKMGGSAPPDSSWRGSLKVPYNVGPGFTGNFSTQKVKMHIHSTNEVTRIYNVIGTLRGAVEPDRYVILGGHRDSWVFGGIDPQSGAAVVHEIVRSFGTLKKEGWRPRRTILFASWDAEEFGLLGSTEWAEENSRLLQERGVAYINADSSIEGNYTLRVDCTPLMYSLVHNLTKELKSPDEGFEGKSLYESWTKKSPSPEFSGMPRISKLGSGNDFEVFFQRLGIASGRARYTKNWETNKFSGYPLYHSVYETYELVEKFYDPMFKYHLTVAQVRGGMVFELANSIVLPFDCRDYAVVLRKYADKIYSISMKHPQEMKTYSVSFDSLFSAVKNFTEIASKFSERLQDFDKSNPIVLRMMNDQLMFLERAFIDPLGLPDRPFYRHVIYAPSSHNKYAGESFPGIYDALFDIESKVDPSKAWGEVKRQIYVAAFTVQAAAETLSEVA

HIV-1 protease [2] = molecular target: T2, HIV-1 protease (Human immunodeficiency virus type 1 group M subtype B, UniProt P04585); assay: HIV-1 protease enzyme kinetics with chromogenic peptide substrate; format: biochemical
T2 construct: made in house

CA-IX = CA-IX (Homo sapiens, UniProt Q16790, N346D); assay: Reference enzyme kinetics of CA-IX (construct without PG domain)
[3] = molecular target: T3, CA-IX contained in a cell lysate of line HT-29 (Homo sapiens, UniProt Q16790); assay: Bivalent ssCAbis probe assay, CA-IX from HT-29 cell lysate on M75 antibody, qPCR; format: binding
T3 construct: unpurified endogenous CA-IX contained in a cell lysate or in microliter volumes of serum; endogenous in cells; host or cells: HT-29
Procedure: (§1) Following the procedure described in the preceding examples, approximately 80 pg of CA-IX contained in a cell lysate of line HT-29 (used amount of total protein determined by Bradford assay was 1 μg) was immobilized using the M75 antibody.

HIV-1 protease [4] = molecular target: T2, HIV-1 protease; assay: ssHIV1 probe assay, HIV-1 protease directly adsorbed on solid carrier, qPCR; format: binding; conditions: pH 6.0
HIV-1 protease [5] = molecular target: T2, HIV-1 protease; assay: ssHIV1 probe assay, HIV-1 protease bound to immobilized polyclonal antibody, qPCR; format: binding
Avi-PSMA [6] = molecular target: T1, Avi-PSMA; assay: PSMA catalytic activity for substrate hydrolysis by dsA3PSMA probe displacement, qPCR; format: biochemical; conditions: for substrate cleaved during incubation: 40 minutes
Procedure: Following the procedure described in section 1i, 20 pg of Avi-PSMA was immobilized to the bottom of the wells via immobilized neutravidin and subsequently incubated with the dsA3PSMA detection probe at a concentration of 35 pmol·l^−1 and simultaneously with various concentrations of the folyl-γ-L-glutamate substrate in the range of 10 nmol·l^−1 to 100 μmol·l^−1 for 40 minutes, and after washing, the amount of bound probe was determined with qPCR. […] At a concentration of 336 nmol·l^−1, 43% was cleaved, corresponding to kcat of 2.3 s^−1 and at a concentration of 1049 nmol·l^−1, 16% was cleaved, corresponding to kcat of 2.6 s^−1. Obtained kcat values are in conformity with the kcat value of 5 s^−1 obtained from enzyme kinetics as described in Section 1c.

CA-IX from blood serum = molecular target: T4, CA-IX from blood serum (Homo sapiens, UniProt Q16790); assay: Bivalent ssCAbis probe assay, CA-IX from blood serum on M75 antibody, qPCR; format: binding; conditions: CA-IX from 1 μl of blood serum
T4 construct: unpurified endogenous CA-IX contained in a cell lysate or in microliter volumes of serum; from tissue; host or cells: human blood serum
Procedure: as §1

[7] = first independent experiment, read-out: Ki (1)
[8] = second independent experiment, read-out: Ki (2)
[9] = initial concentration 107 nmol·l^−1
[10] = initial concentration 336 nmol·l^−1
[11] = initial concentration 1049 nmol·l^−1

Row | Compound | Ki (HIV-1 protease [2]) | Ki (HIV-1 protease [4]; [7]) | Ki (HIV-1 protease [4]; [8]) | Ki (HIV-1 protease [5]) | also measured
1 | O=C(O)CCC(NC(=O)NC(CCCCNC(=O)CCOCCC(=O)NCCO)C(=O)O)C(=O)O (centres unmarked) [Compound 4, 1-hydroxy-4,10,18-trioxo-7-oxa-3,11,17,19-tetraazadocosane-16,20,22-tricarboxylic acid] |  |  |  |  | Ki (Avi-PSMA [1]; Avi-PSMA, IC50 converted by Cheng-Prusoff, pH 7.4, 37° C.): 3.3 nM
2 | CC(C)[C@H](NC(=O)CCOCCOCCOCCOCCOCCC(=O)NCCO)C(=O)N[C@@H](Cc1ccccc1)C[C@H](O)[C@H](Cc1ccccc1)NC(=O)OCc1cncs1 [Compound 8, thiazol-5-ylmethyl ((24S,27S,29S,30S)-27-benzyl-1,29-dihydroxy-24-isopropyl-4,22,25-trioxo-31-phenyl-7,10,13,16,19-pentaoxa-3,23,26-triazahentriacontan-30-yl)carbamate] | 2.3 nM |  |  |  | 
3 | NS(=O)(=O)c1ccc(NC(=O)Nc2ccc(OCCCCNC(=O)CCOCCOCCOCCOCCOCCC(=O)ON3C(=O)CCC3=O)cc2)cc1 [Compound 13, 2,5-dioxopyrrolidin-1-yl 19-oxo-24-(4-(3-(4-sulfamoylphenyl)ureido)phenoxy)-4,7,10,13,16-pentaoxa-20-azatetracosan-1-oate] |  |  |  |  | Ki (CA-IX): ~400 nM
4 | NCCOCCOCCOCCOCCOCCC(=O)NCCCCOc1ccc(NC(=O)Nc2ccc(S(N)(=O)=O)cc2)cc1 [Compound 14, 18-oxo-23-(4-(3-(4-sulfamoylphenyl)ureido)phenoxy)-3,6,9,12,15-pentaoxa-19-azatri-cosan-1-aminium 2,2,2-trifluoroacetate] |  |  |  |  | Ki ([3]; ssCAbis probe, determined in the same way as Table 15, read-out: inhibitory constant): 300 nM
5 | NCCCC[C@H](NC(=O)N[C@@H](CCC(=O)O)C(=O)O)C(=O)O [PSMA parent compound, S,S-2-[3-[5-amino-1-carboxypentyl]-ureido]-pentanedioic acid] |  |  |  |  | Ki (Avi-PSMA [1]; Avi-PSMA enzyme assay): 0.2 nM
6 | COC(=O)N[C@H](C(=O)N[C@@H](Cc1ccccc1)[C@@H](O)CN(Cc1ccc(-c2ccccn2)cc1)NC(=O)[C@@H](NC(=O)OC)C(C)(C)C)C(C)(C)C [atazanavir] | 0.024 nM | 0.11 nM | 0.18 nM | 1.4 nM | 
7 | Cc1nc(COc2ccc(C[C@H](NC(=O)O[C@H]3CO[C@H]4OCC[C@H]43)[C@H](O)CN(CC(C)C)S(=O)(=O)c3ccc4c(c3)OCO4)cc2)cs1 [brecanavir] | 0.001 nM | 0.04 nM | 0.05 nM | 0.41 nM | 
8 | Nc1nc2ncc(CNc3ccc(C(=O)N[C@@H](CCC(=O)N[C@@H](CCC(=O)O)C(=O)O)C(=O)O)cc3)nc2c(=O)[nH]1 [folyl-γ-L-glutamate] |  |  |  |  | kcat from enzyme kinetics (Avi-PSMA [1]; as described in Section 1c): 5 s⁻¹; kcat (Avi-PSMA [6]; [9]): 1.2 s⁻¹; substrate cleaved during incubation (Avi-PSMA [6]; [9]): 80%; kcat (Avi-PSMA [6]; [10]): 2.3 s⁻¹; substrate cleaved during incubation (Avi-PSMA [6]; [10]): 43%; kcat (Avi-PSMA [6]; [11]): 2.6 s⁻¹; substrate cleaved during incubation (Avi-PSMA [6]; [11]): 16%
9 | Cc1cccc(C)c1OCC(=O)N[C@@H](Cc1ccccc1)[C@@H](O)C[C@H](Cc1ccccc1)NC(=O)[C@H](C(C)C)N1CCCNC1=O [lopinavir] | 0.018 nM | 0.18 nM | 0.41 nM | 1.3 nM | 
10 | CCC[C@@]1(CCc2ccccc2)CC(O)=C([C@H](CC)c2cccc(NS(=O)(=O)c3ccc(C(F)(F)F)cn3)c2)C(=O)O1 [tipranavir] | 0.14 nM | 1.3 nM | 2.9 nM | 14 nM | 
11 | iqPCR_amino: single-stranded DNA (SEQ ID NO: 1) with 3′-terminal 6-amino-2-(hydroxymethyl)hexyl phosphate modification, no ligand portion (DNA CCTGCCAGTTGAGCATTTTTATCTGCCACCTTCTCCACCAGACAAAAGCTGGAAA; DNA, 3' {AmHex}, backbone not given here) |  |  |  |  | inhibition at the highest concentration used (Avi-PSMA [1]; 0.5 μmol·l^−1): no inhibition observed; binding to immobilized HIV-1 protease (HIV-1 protease [5]; 100 ng of HIV-1 protease): no binding was observed
12 | ssCAbis: bivalent probe: two molecules of Compound 13 on oligonucleotide SEQ ID NO: 7 (DNA AAACCTGCCAGTTGAGCATTTTTATCTGCCACCTTCTCCACCAGACAAAAGCTGGAAA; 5' {C6NH2-Cpd13}, 3' {C7NH2-Cpd13}, sugars by position and backbone not given here) |  |  |  |  | Kd ([3]; HT-29 lysate, HEPESTC′ buffer): 2.1 nM; Kd (CA-IX from blood serum): 2.2 nM
